The record followed here is patent US20050106563A1 (Genesis Biotech Inc., priority 2003, published 2005).

Where no end group is shown, it is not given here.

In assay [1] the test system is chicken anti-avian infectious bronchitis virus (IBV) sera. The class given is binding.
Assay [2] relates to anti-SARS-CoV antibody in human sera. The class given is binding.
A further assay relates to anti-SARS-CoV sera IgG. In kind it is binding, human.
Assay [3] deals with cat anti-feline coronavirus sera. The class given is binding.
The test system of assay [4] is IgM specific to SARS-COV N1. The class given is binding, human.

For the substance “(APATVCGPKL)8K4K2K-βA (also: octameric MAP on K4K2K lysine core with C-terminal βAla) [GA115]”, the “cross reaction with chicken anti-IBV antiserum” value (shortened to “cross reaction”) in assay [1] is recorded as “cross reacted only but weakly”.
In the case of “(ASLPYGANKE)8K4K2K-βA (also: octameric MAP on K4K2K lysine core with C-terminal βAla) [GA146]”, the “serum binding during treatment versus recovery period (inflammation epitopes)” value in assay [2] was “more strongly during the treatment than during the recovery period”.
As to “(ASVVNIQKEI)8K4K2K-βA (also: octameric MAP on K4K2K lysine core with C-terminal βAla) [GA291]”, in the assay with anti-SARS-CoV sera IgG, the “time dependency of antibody binding (time dependent epitopes)” value (from here on “time dependency of antibody binding”) is “immediate early (days 1-6)”.
As to “(DHIGTRNPNN)8K4K2K-βA (also: octameric MAP on K4K2K lysine core with C-terminal βAla) [GA151]”, in the assay on anti-SARS-CoV sera IgG, the “detection of SARS-COV antibody (IgG) in patient #51” value (from here on “detection … (IgG) in patient #51”) is listed as “can be detected” and the “time dependency of antibody binding” value was “immediate early (days 1-6)”. Moreover, in assay [2], the “Responder (AT>1, positive)/Total samples (R/T)” value is listed as 10/10; the “Responder/Total samples (R/T) value” is reported as 0; the “share of group 2 regarded as probable SARS patients (17 of 23 cases)” value was determined as 74%. Besides, in assay [3], the AbT came to 2.9 and the “response ratio R/T” value was 1/8. In addition, the “cross reaction” value in assay [1] was “did not cross react”. The “detection of SARS-COV antibody (IgM) in patient #51” value (shortened to “detection … (IgM) in patient #51”) in assay [4] is on record as “can be detected”.
Take “(FFGMSRIGME)8K4K2K-βA (also: octameric MAP on K4K2K lysine core with C-terminal βAla) [GA158]”: in assay [2], the “serum binding during treatment versus recovery period (inflammation epitopes)” value was “more strongly during the treatment than during the recovery period”. Moreover, the “response ratio R/T” value in assay [3] is recorded as 8/8; in assay [1], 3/3.
With “(GANKEGIVWV)8K4K2K-βA (also: octameric MAP on K4K2K lysine core with C-terminal βAla) [GA147]”, in assay [2], the “serum binding during treatment versus recovery period (inflammation epitopes)” value was “more strongly during the treatment than during the recovery period”. Further, the “response ratio R/T” value in assay [1] is reported as 1/3.
Regarding “(GKMKELSPRW)8K4K2K-βA (also: octameric MAP on K4K2K lysine core with C-terminal βAla) [GA142]”, the “serum binding during treatment versus recovery period (inflammation epitopes)” value in assay [2] is reported as “more strongly during the treatment than during the recovery period”.
Still for that read-out and setting: the value for “(GNCDVVIGII)8K4K2K-βA (also: octameric MAP: 8 copies on K4K2K lysine core with C-terminal βAla) [GA134]” was “more strongly during the treatment than during the recovery period”.
With “(GSITAQPVKI)8K4K2K-βA (also: octameric MAP: 8 copies on K4K2K lysine core with C-terminal βAla) [GA186]”, the “cross reaction” value in assay [1] is reported as “cross reacted only but weakly”.
Take “(GTSWFITQRN)8K4K2K-βA (also: octameric MAP: 8 copies on K4K2K lysine core with C-terminal βAla) [GA129]”: in assay [3], the AbT is greater than 1 and the “response ratio R/T” value is 5/6.
For “(HGAIKLDDKD)8K4K2K-βA (also: octameric MAP: 8 copies on K4K2K lysine core with C-terminal βAla) [GA162]”, the “time dependency of antibody binding” value with anti-SARS-CoV sera IgG is “early (days 7-29)”.
With “(IAQFAPSASA)8K4K2K-βA (also: octameric MAP: 8 copies on K4K2K lysine core with C-terminal βAla) [GA156]”, the “serum binding during treatment versus recovery period (inflammation epitopes)” value in assay [2] is given as “more strongly during the treatment than during the recovery period”.
The same measure, in the same setting: next, “(IGYYRRATRR)8K4K2K-βA (also: octameric MAP: 8 copies on K4K2K lysine core with C-terminal βAla) [GA139]”: “more strongly during the treatment than during the recovery period”.
Same read-out and setting: next, “(IITTDNTFVS)8K4K2K-βA (also: octameric MAP: 8 copies on K4K2K lysine core with C-terminal βAla) [GA132]”: “more strongly during the treatment than during the recovery period”; “(INTNSGPDDQ)8K4K2K-βA (also: octameric MAP: 8 copies on K4K2K lysine core with C-terminal βAla) [GA137]”: “more strongly during the treatment than during the recovery period”.
Consider “(KHWPQIAQFA)8K4K2K-βA (also: octameric MAP: 8 copies on K4K2K lysine core with C-terminal βAla) [GA155]”, for which the “serum binding during treatment versus recovery period (inflammation epitopes)” value in assay [2] is “more strongly during the treatment than during the recovery period”. Also, the “response ratio R/T” value is listed as 8/8 in assay [3] and 2/3 in assay [1].
Consider “(KKTDEAQPLP)8K4K2K-βA (also: octameric MAP: 8 copies on K4K2K lysine core with C-terminal βAla) [GA170]”, for which, in the assay on anti-SARS-CoV sera IgG, the “detection … (IgG) in patient #51” value is on record as “can be detected” and the “time dependency of antibody binding” value is “immediate early (days 1-6)”. Moreover, in assay [2], the “Responder (AT>1, positive)/Total samples (R/T)” value is 10/10; the “Responder/Total samples (R/T) value” is reported as 0; the “share of group 2 regarded as probable SARS patients (17 of 23 cases)” value was found to be 74%. Besides, in assay [3], the “response ratio R/T” value is on record as 0/8. The “cross reaction” value in assay [1] is on record as “cross reacted only but weakly”.
For the substance “(KYFKNHTSPD)8K4K2K-βA (also: octameric MAP: 8 copies on K4K2K lysine core with C-terminal βAla) [GA287]”, the “time dependency of antibody binding” value in the assay on anti-SARS-CoV sera IgG is given as “immediate early (days 1-6)”.
For the substance “(LQLPQGTTLP)8K4K2K-βA (also: octameric MAP: 8 copies on K4K2K lysine core with C-terminal βAla) [GA154]”, the “detection … (IgM) in patient #51” value in assay [4] is “can be detected”.
Consider “(LRIPVTAEVGSSYFK)8K4K2K-βA (also: octameric MAP: 8 copies on K4K2K lysine core with C-terminal βAla) [GA6, control polypeptide, WSSV VP28 52-66]”, for which the “response ratio R/T” value was 8/8 in assay [3] and 1/3 in assay [1].
On to “(LSPRWYFYYL)8K4K2K-βA (also: octameric MAP: 8 copies on K4K2K lysine core with C-terminal βAla) [GA143]”, for which, in assay [2], the “serum binding during treatment versus recovery period (inflammation epitopes)” value is “more strongly during the treatment than during the recovery period”.
With “(NAATVLQLPQ)8K4K2K-βA (also: octameric MAP: 8 copies on K4K2K lysine core with C-terminal βAla) [GA153]”, in assay [4], the “detection … (IgM) in patient #51” value is on record as “can be detected”.
For “(PPTEPKKDKK)8K4K2K-βA (also: octameric MAP: 8 copies on K4K2K lysine core with C-terminal βAla) [GA168]”, in the assay on anti-SARS-CoV sera IgG, the “detection … (IgG) in patient #51” value is recorded as “can be detected” and the “time dependency of antibody binding” value is given as “immediate early (days 1-6)”.
Consider “(QPTVTLLPAA)8K4K2K-βA (also: octameric MAP: 8 copies on K4K2K lysine core with C-terminal βAla) [GA173]”, for which the “cross reaction” value in assay [1] is recorded as “cross reacted only but weakly”.
In the case of “(QRQKKQPTVT)8K4K2K-βA (also: octameric MAP: 8 copies on K4K2K lysine core with C-terminal βAla) [GA172]”, the entries for the “response ratio R/T” value in assay [3] and in assay [1] were 8/8 and 3/3, respectively.
For the substance “(RINWVTGGIA)8K4K2K-βA (also: octameric MAP: 8 copies on K4K2K lysine core with C-terminal βAla) [GA179]”, the “serum binding during treatment versus recovery period (inflammation epitopes)” value in assay [2] is on record as “more strongly during the treatment than during the recovery period”. Besides, the “response ratio R/T” value in assay [3] is on record as 7/8; in assay [1] it was 3/3.
On the same counts, the results for “(RVDFCGKGYH)8K4K2K-βA (also: octameric MAP: 8 copies on K4K2K lysine core with C-terminal βAla) [GA117]” are “more strongly during the treatment than during the recovery period”, 6/8 and 1/3.
On the same counts, the results for “(RYLRHGKLRP)8K4K2K-βA (also: octameric MAP: 8 copies on K4K2K lysine core with C-terminal βAla) [GA102]” are “more strongly during the treatment than during the recovery period”, 8/8 and 2/3.
On the same counts, the results for “(YNYKYRYLRH)8K4K2K-βA (also: octameric MAP: 8 copies on K4K2K lysine core with C-terminal βAla) [GA101]” are “more strongly during the treatment than during the recovery period”, 8/8 and 3/3.
For FVASFRLFAR (SARS Coronavirus) [GA203], in the assay with anti-SARS-CoV sera IgG, the “detection … (IgG) in patient #51” value is listed as “can be detected” and the “time dependency of antibody binding” value was “immediate early (days 1-6)”.
On to LLACLCKHKK (SARS Coronavirus) [GA231], for which, in the assay on anti-SARS-CoV sera IgG, the “detection … (IgG) in patient #51” value is given as “can be detected” and the “time dependency of antibody binding” value is given as “immediate early (days 1-6)”. Besides, the “serum binding during treatment versus recovery period (inflammation epitopes)” value in assay [2] was “more strongly during the treatment than during the recovery period”.
As to MSRRRLLACL (SARS Coronavirus) [GA230], in the assay with anti-SARS-CoV sera IgG, the “detection … (IgG) in patient #51” value is reported as “can be detected” and the “time dependency of antibody binding” value is recorded as “immediate early (days 1-6)”.
NYKYRYLRHGKLRPFERDISNVPFS [GA91]: the “response ratio R/T” value in assay [3] is 6/8.
